What was measured:
Test in all cases: Post emergence treatment, pot test, herbicidal activity
Type in all cases: in vivo
CYPIR (Cyperus iria) = conditions: scale from 0 to 100
Description: (§1) Synergism can be described as an interaction where the combined effect of two or more compounds is greater than the sum of the individual effects of each of the compounds. The pres-ence of a synergistic effect in terms of percent control, between two mixing partners (X and Y) can be calculated using the Colby equation (Colby, S. R., 1967, Calculating Synergistic and Antagonistic Responses in Herbicide Combinations, Weeds, 15, 21-22):
(§2) When the observed combined control effect is greater than the expected (calculated) combined control effect (E), then the combined effect is synergistic.
(§3) However, the weed control afforded by the compounds, mixtures or compositions is not limited to these species. The analysis of synergism or antagonism between the mixtures or compositions was determined using Colby's equation.
(§4) The culture containers used were plastic flowerpots containing loamy sand with approximately 3.0% of humus as the substrate. The seeds of the test plants were sown separately for each species and/or resistant biotype. For the pre-emergence treatment, the active ingredients, which had been suspended or emulsified in water, were applied directly after sowing by means of finely distributing nozzles. The containers were irrigated gently to promote germination and growth and subsequently covered with transparent plastic hoods until the plants had rooted. This cover caused uniform germination of the test plants, unless this had been impaired by the active ingredients. For the post-emergence treatment, the test plants were first grown to a height of 3 to 15 cm, depending on the plant habit, and only then treated with the active ingredients which had been suspended or emulsified in water. For this purpose, the test plants were either sown directly and grown in the same containers, or they were first grown separately as seedlings and transplanted into the test containers a few days prior to treatment. Depending on the species, the plants were kept at 10-25° C. or 20-35° C., respectively. The test period extended to 20 days after treatment. During this time, the plants were tended, and their response to the individual treatments was evaluated. The evaluation was carried out by using a scale from 0 to 100. 100 means no emergence of the plants or complete destruction of at least the above-ground parts, and 0 means no damage, or normal course of growth. Data shown are the mean of two replications.
(§5) • L-Glufosinate: 5% EC formulation • Saflufenacil: 342 g/l SC formulation • Compound II-16: 5% EC formulation (Compound II-16: ethyl[3-[2-chloro-4-fluoro-5-(1-methyl-6-trifluoromethyl-2,4-dioxo-1,2,3,4-tetrahydropyrimidin-3-yl)phenoxy]-2-pyridyloxy]acetate) • Trifludimoxazin: 500 g/l SC formulation • Sulfentrazone: 480 g/l SC formulation

[1] = test system: ECHCG (Echinochloa crus-galli)
Description: as §1, §2, §3, §4, §5

[2] = test system: ERICA (Erigeron Canadensis, Conyza canadensis); conditions: scale from 0 to 100
Description: as §1, §2, §3, §4, §5

CCOC(=O)COc1ncccc1Oc1cc(-n2c(=O)cc(C(F)(F)F)n(C)c2=O)c(F)cc1Cl [Compound II-16, ethyl[3-[2-chloro-4-fluoro-5-(1-methyl-6-trifluoromethyl-2,4-dioxo-1,2,3,4-tetrahydropyrimidin-3-yl)phenoxy]-2-pyridyloxy]acetate]
Herbicidal activity against CYPIR, Found (CYPIR (Cyperus iria); Compound II-16 alone, 0.25 g ai/ha): 0

CP(=O)(O)CC[C@H](N)C(=O)O [L-Glufosinate, (2S)-2-amino-4-[hydroxy(methyl)phosphinoyl]butyric acid]
Herbicidal activity against CYPIR, Found (CYPIR (Cyperus iria); L-Glufosinate alone, 200 g ai/ha): 0
Herbicidal activity against ECHCG, Found ([1]; L-Glufosinate alone, 200 g ai/ha, scale from 0 to 100): 0
Herbicidal activity against ECHCG, Found ([1]; L-Glufosinate alone, 400 g ai/ha, scale from 0 to 100, mean of two replications): 65
Herbicidal activity against ERICA, Found ([2]; L-Glufosinate alone, 75 g ai/ha): 90

CC(C)N(C)S(=O)(=O)NC(=O)c1cc(-n2c(=O)cc(C(F)(F)F)n(C)c2=O)c(F)cc1Cl [Saflufenacil, saflufenacil]
Herbicidal activity against ECHCG, Found ([1]; Saflufenacil alone, 0.5 g ai/ha, scale from 0 to 100): 0

Cc1nn(-c2cc(NS(C)(=O)=O)c(Cl)cc2Cl)c(=O)n1C(F)F [Sulfentrazone, sulfentrazone]
Herbicidal activity against ERICA, Found ([2]; Sulfentrazone alone, 1.25 g ai/ha): 0
Herbicidal activity against ERICA, Found ([2]; Sulfentrazone alone, 2.5 g ai/ha): 0

C#CCN1C(=O)C(F)(F)Oc2cc(F)c(-n3c(=O)n(C)c(=S)n(C)c3=O)cc21 [Trifludimoxazin, trifludimoxazin]
Herbicidal activity against ECHCG, Found ([1]; Trifludimoxazin alone, 0.25 g ai/ha, scale from 0 to 100): 10

Reference: patent US12256739B2, “Herbicidal mixtures comprising L-glufosinate or its salt and at least one protoporphyrinogen-IX oxidase inhibitor” (BASF SE, priority 2017, dated 2025)
